From US9827219B2, “Compositions and methods for lowering levels of high-sensitivity C-reactive protein (HS-CRP) in a subject” (priority 2012, dated 2017)

Test system: cognitive performance in subjects with AAMI
Test: CDR computerized cognitive test battery, 6-week pilot study in Age-Associated Memory Impairment (Example 1)
Format: in vivo, human
Settings: for Quality of Episodic Secondary Memory, LS mean difference vs placebo: overall
Experimental: A single-center, 6-week, double-blind, randomizes, parallel-group, placebo-controlled, dose-ranging pilot study was performed to evaluate the efficacy, tolerability, and safety of >96% ethyl-EPA in subjects with subjective and objective memory impairment according to generally accepted criteria for Age-Associated Memory Impairment (“AAMI”). The primary objective of the study was to determine the effect of >96% ethyl-EPA 1 g, 2 g, and 4 g daily, compared to placebo, on cognitive performance in subjects with AAMI.
The population for this study was men and women between ages 50 and 70 with self-reported complaints of memory loss, subjective and objective cognitive impairment with a score of at least one standard deviation below that of the mean for age-matched elderly population as determined by the total score of between 13 and 20 from the Paired Associated Learning (“PAL”) subset of the Wechsler Memory Scale, evidence of adequate intellectual function as determined by a scaled score of at least 9 (raw score of at least 32) on the Vocabulary subtest of the Wechsler Adult Intelligence Scale and absence of dementia as determined by a score of 24 or higher on the Mini-Mental State Examination (“MMSE”).
Ninety-four subjects were randomized into one of six groups: 1 g E-EPA daily (n=23), 2 g E-EPA daily (n=24), 4 g E-EPA daily (n=24), 1 g placebo daily (n=7), 2 g placebo daily (n=8), and 4 g placebo daily (n=8). E-EPA was provided as 500 mg soft gel capsules containing >96% E-EPA and 0.2% dl-α-tocopherol as an antioxidant. Placebo capsules contained 467 mg of liquid paraffin and 0.2% dl-α-tocopherol. Ninety-one subjects completed the study. Two subjects in the 2 g E-EPA group and one subject in the 2 g placebo group discontinued the study.
The study consisted of a screening visit, a training visit, and four study visits. At the screening visit, subjects' eligibility was determined through cognitive tests (verbal paired associated learning [PAL] subscale, vocabulary subtest, Memory Assessment Clinics Questionnaire [MAC-Q], mini mental state evaluation [MMSE] and MINI [mini international neuropsychiatric interview; sections 1 and 2 of Diagnostic and Statistical Manual of Mental Disorders, 4th Edition (DSM-IV) plus dysthymia]), haematology, clinical chemistry and 12-lead electrocardiogram (ECG). At the training visit, subjects were shown how to use the CDR computerized system. Subjects took study drug for 6 weeks and on Days 0, 14, 28 and 42, subjects underwent the CDR cognitive test battery.
A selection of tasks from the CDR computerized cognitive assessment system were administered at Visit 2 (training visit), Visit 3 (baseline), Visit 4 (Day 14), Visit 5 (Day 28) and Visit 6 (Day 42). Parallel forms of the tests were presented at each testing session. All tasks were computer-controlled, the information presented on high resolution monitors, and the responses recorded via a response model containing two buttons: one marked ‘no’ and the other ‘yes’. Five CDR composite scores were used as the primary/secondary outcome variables. The task titles were: • Word Presentation • Immediate Word Recall • Picture Presentation • Simple Reaction Time • Digit Vigilance • Choice Reaction Time • Spatial Working Memory • Numeric Working Memory • Delayed Word Recall • Word Recognition • Picture Recognition • Bond-Lader Visual Analogue Scales of Mood and Alertness • Screen, Using the Computer Mouse
To ensure consistency of approach, full training on the cognitive tests and CDR test battery was provided to study site staff and study subjects. The results of each variable were automatically recorded using the machine interface developed by CDR.
Summary statistics were provided for the ITT and Study Per Protocol Populations separately for all composite scores, major and supportive variables. Summary statistics were performed for both the unadjusted and difference from baseline data (i.e. the difference from the time matched predose assessments on Day 0). […]

[1] = ITT, ANCOVA, 1, 2, 4 g daily vs placebo

CC/C=C\C/C=C\C/C=C\C/C=C\C/C=C\CCCC(=O)OCC [AMR101, all-cis eicosa-5,8,11,14,17-pentaenoic acid ethyl ester]
Self-Rated Contentment, LS mean difference to placebo (ITT): no statistically significant effects
Immediate Word Recall Accuracy, LS mean difference vs placebo (ITT, 1 g, AM 1, p=0.040): statistically significant decreases
Immediate Word Recall Accuracy, LS mean difference vs placebo (ITT, 1 g, Day 14, p=0.028): statistically significant decreases
Picture Recognition Speed, LS mean difference vs placebo (ITT, 1 g, Day 14 at AM 2, p=0.084): trends for benefits versus placebo
Immediate Word Recall Accuracy, LS mean difference vs placebo (ITT, 1 g, Day 14 at PM 2, p=0.020): statistically significant decreases
Word Recognition Sensitivity Index, LS mean difference vs placebo (ITT, 1 g, Day 28, p=0.024): statistically significant decreases
Picture Recognition Speed, LS mean difference vs placebo (ITT, 1 g, Day 28 at AM 1, p=0.085): trends for benefits versus placebo
Picture Recognition Sensitivity Index, LS mean difference vs placebo (ITT, 1 g, Day 28 at AM 2, p=0.017): statistically significant decrease
Picture Recognition Sensitivity Index, LS mean difference vs placebo (ITT, 1 g, Day 28 at PM 2, p=0.040): statistically significant decrease
Quality of Episodic Secondary Memory, LS mean difference vs placebo (ITT, 1 g, p=0.040): statistically significant decreases versus placebo
Immediate Word Recall Accuracy, LS mean difference vs placebo (ITT, 2 g, AM 1, p=0.028): statistically significant decreases
Immediate Word Recall Accuracy, LS mean difference vs placebo (ITT, 2 g, Day 28, p=0.017): statistically significant decreases
Self-Rated Alertness, LS mean difference vs placebo (ITT, 2 g, Day 28, p=0.047): statistically significant decrease in ratings
Immediate Word Recall Accuracy, LS mean difference vs placebo (ITT, 2 g, Day 28 at AM 1, p=0.006): statistically significant decreases
Self-Rated Alertness, LS mean difference vs placebo (ITT, 2 g, Day 28 at AM 2, p=0.041): statistically significant decrease in ratings
Quality of Episodic Secondary Memory, LS mean difference vs placebo (ITT, 2 g, p=0.035): statistically significant decreases versus placebo
Spatial Working Memory Speed, LS mean difference vs placebo (ITT, 4 g, Day 14 at PM 1, p=0.048): statistically significant benefit versus placebo
Word Recognition Sensitivity Index, LS mean difference vs placebo (ITT, 4 g, Day 28 at PM 2, p=0.030): statistically significant decrease
Word Recognition Sensitivity Index, LS mean difference vs placebo (ITT, 4 g, Day 42, p=0.038): statistically significant decreases
Spatial Working Memory Speed, LS mean difference vs placebo (ITT, 4 g, Day 42 at AM 1, p=0.061): trend for a benefit
Word Recognition Sensitivity Index, LS mean difference vs placebo (ITT, 4 g, PM 2, p=0.045): statistically significant decrease
Continuity of Attention (ITT, ANCOVA): no statistically significant effect of treatment
Delayed Word Recall Accuracy (ITT, ANCOVA): no statistically significant effects of treatment
Digit Vigilance Targets Detected (ITT, ANCOVA): no statistically significant effect of treatment
Immediate Word Recall Accuracy (ITT, ANCOVA): no statistically significant effects of treatment
Numeric Working Memory Speed (ITT, ANCOVA): no statistically significant effects of treatment
Picture Recognition Sensitivity Index (ITT, ANCOVA): no statistically significant effects of treatment
Picture Recognition Speed (ITT, ANCOVA): no statistically significant effects of treatment
Quality of Episodic Secondary Memory (ITT, ANCOVA): no statistically significant effect of treatment
Self-Rated Alertness (ITT, ANCOVA): no statistically significant effect of treatment
Self-Rated Calmness (ITT, ANCOVA): no statistically significant effect of treatment
Spatial Working Memory Speed (ITT, ANCOVA): no statistically significant effects of treatment
Speed of Memory (ITT, ANCOVA): no statistically significant effects of treatment
Word Recognition Sensitivity Index (ITT, ANCOVA): no statistically significant effects of treatment
Word Recognition Speed (ITT, ANCOVA): no statistically significant effects of treatment
Digit Vigilance Speed [1]: no statistically significant effects of treatment
Power of Attention [1]: no statistically significant effect of treatment
Simple Reaction Time [1]: no statistically significant effects of treatment
Self-Rated Contentment (ITT, ANCOVA, p<0.001): statistically significant treatment by day interaction
Choice Reaction Time (ITT, ANCOVA, p=0.011): statistically significant treatment by day interaction
Spatial Working Memory Sensitivity Index (ITT, ANCOVA, p=0.015): statistically significant treatment by day interaction
Quality of Working Memory (ITT, ANCOVA, p=0.019): statistically significant treatment by day interaction
Numeric Working Memory Sensitivity Index (ITT, ANCOVA, p=0.089): statistical trend for a treatment by day interaction
Power of Attention, LS mean difference active vs placebo (ITT, any time-point): no LS mean difference between active treatment and placebo
Continuity of Attention (Study Per Protocol, ANCOVA): no statistically significant effect of treatment
Digit Vigilance Targets Detected (Study Per Protocol, ANCOVA, p=0.040): statistically significant treatment by time-point interaction
Self-Rated Contentment, LS mean difference to placebo (Study Per-Protocol): no statistically significant effects
Immediate Word Recall Accuracy, LS mean difference to placebo (Study Per-Protocol, 1 g, AM 1, p=0.038): statistically significant decreases
